Results: the supplement of paper PMC11451515

Tested on: NOMO1
Test: cell viability relative to DMSO control; higher = less cytotoxic
Conditions: 48 h
Method in brief: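 Three leukemia lines were tested: NOMO1 and SEM at 500 cells/well and P12-Ichikawa at 1000 cells/well. Each was adapted for at least four passages in each medium and seeded in 5 μl in 1536-well plates, and library compounds in DMSO were pin-dosed from 47 μM to 0.79 nM in 11 threefold steps. After 48 h at 37°C, CellTiter-Glo One luminescence was read. Viability is a percentage relative to DMSO wells on each plate, with cell-free wells as background.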

[1] = HPLM + 10% dialyzed FBS, 0.000781 µM
[2] = HPLM + 10% dialyzed FBS, 0.00234 µM
[3] = HPLM + 10% dialyzed FBS, 0.00702 µM
[4] = HPLM + 10% dialyzed FBS, 0.0211 µM
[5] = HPLM + 10% dialyzed FBS, 0.0632 µM
[6] = HPLM + 10% dialyzed FBS, 0.19 µM
[7] = HPLM + 10% dialyzed FBS, 0.569 µM
[8] = HPLM + 10% dialyzed FBS, 1.71 µM
[9] = HPLM + 10% dialyzed FBS, 5.12 µM
[10] = HPLM + 10% dialyzed FBS, 15.4 µM
[11] = HPLM + 10% dialyzed FBS, 46.1 µM
[12] = RPMI 5 mM glucose + 10% FBS, 0.000781 µM
[13] = RPMI 5 mM glucose + 10% FBS, 0.00234 µM
[14] = RPMI 5 mM glucose + 10% FBS, 0.00702 µM
[15] = RPMI 5 mM glucose + 10% FBS, 0.0211 µM
[16] = RPMI 5 mM glucose + 10% FBS, 0.0632 µM
[17] = RPMI 5 mM glucose + 10% FBS, 0.19 µM
[18] = RPMI 5 mM glucose + 10% FBS, 0.569 µM
[19] = RPMI 5 mM glucose + 10% FBS, 1.71 µM
[20] = RPMI 5 mM glucose + 10% FBS, 5.12 µM
[21] = RPMI 5 mM glucose + 10% FBS, 15.4 µM
[22] = RPMI 5 mM glucose + 10% FBS, 46.1 µM
[23] = RPMI 5 mM glucose + 10% dialyzed FBS, 0.000781 µM
[24] = RPMI 5 mM glucose + 10% dialyzed FBS, 0.00234 µM
[25] = RPMI 5 mM glucose + 10% dialyzed FBS, 0.00702 µM
[26] = RPMI 5 mM glucose + 10% dialyzed FBS, 0.0211 µM
[27] = RPMI 5 mM glucose + 10% dialyzed FBS, 0.0632 µM
[28] = RPMI 5 mM glucose + 10% dialyzed FBS, 0.19 µM
[29] = RPMI 5 mM glucose + 10% dialyzed FBS, 0.569 µM
[30] = RPMI 5 mM glucose + 10% dialyzed FBS, 1.71 µM
[31] = RPMI 5 mM glucose + 10% dialyzed FBS, 5.12 µM
[32] = RPMI 5 mM glucose + 10% dialyzed FBS, 15.4 µM
[33] = RPMI 5 mM glucose + 10% dialyzed FBS, 46.1 µM

SMILES	cell viability [1]	cell viability [2]	cell viability [3]	cell viability [4]	cell viability [5]	cell viability [6]	cell viability [7]	cell viability [8]	cell viability [9]	cell viability [10]	cell viability [11]	cell viability [12]	cell viability [13]	cell viability [14]	cell viability [15]	cell viability [16]	cell viability [17]	cell viability [18]	cell viability [19]	cell viability [20]	cell viability [21]	cell viability [22]	cell viability [23]	cell viability [24]	cell viability [25]	cell viability [26]	cell viability [27]	cell viability [28]	cell viability [29]	cell viability [30]	cell viability [31]	cell viability [32]	cell viability [33]
CC(C)C[C@H](CN)CC(=O)O	105%	108%	122%	109%	98.1%	96.1%	108%	117%	101%	79.6%	91.7%	90.3%	95.6%	102%	97.8%	87.9%	89.9%	99.3%	93.6%	91.5%	90.3%	83.8%	97.3%	100%	105%	106%	95.8%	97.6%	99.3%	89.3%	99.2%	92.1%	90%
C[C@@H]1CC[C@@]2(OC1)O[C@H]3C[C@H]4[C@@H]5C/C=C6/C[C@H](CC[C@]6(C)[C@H]5CC[C@]4(C)[C@H]3[C@@H]2C)O[C@@H]7O[C@H](CO)[C@@H](O[C@@H]8O[C@@H](C)[C@H](O)[C@@H](O)[C@H]8O)[C@H](O)[C@H]7O[C@@H]9O[C@@H](C)[C@H](O)[C@@H](O)[C@H]9O	108%	122%	122%	127%	142%	136%	141%	152%	132%	124%	8.71%	–	–	–	–	–	–	–	–	–	–	–	–	–	–	–	–	–	–	–	–	–	–
COc1cc2ncnc(-n3nc(-c4ccccn4)nc3N)c2cc1OC	82.3%	102%	111%	101%	110%	93.7%	95.2%	112%	86.3%	74.8%	0.936%	83.5%	86.2%	92.7%	101%	88.6%	96.3%	84.9%	99.3%	84.7%	78%	1.29%	82.5%	89.4%	93%	110%	98.4%	96.7%	98.5%	94.5%	81.8%	76.4%	3.64%
CCCCN(CCCC)CCC(O)c1cc2c(Cl)cc(Cl)cc2c2cc(C(F)(F)F)ccc12 (stereo not given)	115%	115%	115%	124%	119%	138%	134%	121%	131%	126%	123%	117%	111%	119%	107%	106%	126%	128%	121%	121%	121%	115%	116%	109%	121%	126%	121%	115%	135%	116%	118%	122%	116%
O=C1NC(=O)[C@@H](c2cn3c4c(cccc24)CCC3)[C@@H]1c1c[nH]c2ccccc12	95.9%	99.3%	98.2%	104%	107%	89.3%	89.8%	62.9%	29.7%	36.4%	20.6%	104%	116%	115%	99.5%	108%	104%	110%	68.6%	21.1%	20.8%	20.5%	93.1%	91.3%	96.2%	98.7%	106%	98.3%	114%	80%	22.4%	28.5%	29%
Cc1ccc(C(C)(O)c2nc3ccccc3s2)c(C)c1 (stereo not given)	88.5%	124%	115%	109%	130%	127%	113%	132%	98.3%	55.7%	28.8%	95.7%	101%	105%	113%	105%	113%	110%	114%	116%	52.6%	21.1%	107%	107%	104%	113%	113%	114%	108%	117%	104%	100%	39.2%
Cc1c[nH]c(/C=C2\C(=O)Nc3ccccc32)c1CCC(=O)O	109%	114%	116%	101%	90.1%	102%	95.3%	83%	82.2%	61.3%	50.7%	125%	124%	114%	122%	122%	116%	121%	116%	103%	70.6%	68.1%	123%	126%	121%	110%	109%	111%	118%	104%	91.7%	77.1%	58.6%
C[C@H]1CN(C[C@@H](C)O1)CC(=O)NC2=CC=C3SC4=C(CC3=C2)C=CC=C4\C5=C\C(=O)\C=C(/O5)N6CCOCC6	100%	125%	108%	123%	126%	128%	118%	89.2%	72.5%	39.2%	35%	93.4%	125%	121%	118%	107%	106%	98.7%	106%	96.8%	64.2%	55.8%	85%	108%	107%	106%	104%	113%	100%	97.3%	85.5%	62.7%	45.2%
NC(=O)c1ccc(-c2nc(-c3ccc4c(c3)OCCO4)c(-c3ccccn3)[nH]2)cc1	–	–	–	–	–	–	–	–	–	–	–	105%	104%	104%	106%	118%	119%	121%	114%	122%	107%	114%	121%	119%	119%	118%	134%	113%	131%	125%	114%	116%	119%
O=C(NC1CCOCC1)c1ccc(-c2cc(-c3c[nH]nc3-c3ccccn3)ccn2)cc1	125%	99.7%	110%	93.6%	120%	107%	114%	101%	87.5%	110%	108%	99.4%	97.6%	102%	98.8%	99.7%	104%	93.2%	87.3%	93.1%	104%	93.8%	106%	94.9%	99.6%	91.1%	104%	92.4%	95.3%	104%	96.7%	97.8%	93%
CNC(=O)c1cccc(-c2ccc3c(N4CCOC[C@@H]4C)nc(N4CCOC[C@@H]4C)nc3n2)c1	99.9%	99.8%	83.6%	92.1%	73.8%	61.4%	64.3%	67.3%	60.1%	49.3%	53.7%	98.3%	91.1%	91.2%	96.6%	79.6%	82.9%	87.2%	68.9%	57.9%	60.2%	45.2%	83.7%	85.7%	90.5%	79.5%	75.6%	62.8%	62.5%	54.8%	50.4%	49.4%	50.3%
Clc1cccc(-c2nnnn2Cc2cccnc2)c1Cl	82.8%	92.7%	96.4%	99.9%	92.4%	93.1%	79%	57.2%	49.8%	48.6%	33.1%	80%	87.1%	89.5%	84.1%	91.5%	89%	90.5%	62.9%	55.8%	57.2%	48.5%	81.5%	83.6%	91.1%	93.6%	83.7%	83.2%	83.9%	52.5%	59.1%	58%	47.8%
CC(C)(C)/[N+]([O-])=C/c1ccc([S+](=O)([O-])[O][Na])cc1[S+](=O)([O-])[O][Na]	97.5%	102%	111%	115%	121%	132%	121%	128%	129%	119%	127%	105%	118%	119%	126%	125%	118%	125%	128%	111%	138%	133%	94%	102%	111%	114%	111%	120%	127%	109%	109%	123%	120%
Cc1cc2c(C(C)C)c(O)c(O)c(C=O)c2c(O)c1-c1c(C)cc2c(C(C)C)c(O)c(O)c(C=O)c2c1O	122%	123%	135%	137%	115%	107%	116%	105%	105%	100%	50.8%	100%	116%	104%	109%	107%	106%	115%	97.1%	98.5%	92.8%	12%	115%	115%	114%	121%	114%	102%	103%	106%	110%	94.6%	27.5%
C[C@]\1(CCS\C(=N1)N)C2=CC(=C(F)C=C2F)C3=CN=CN=C3	95.4%	106%	103%	95.2%	118%	112%	98.2%	91.3%	38.1%	25%	3.54%	105%	107%	101%	100%	98%	101%	100%	60.6%	20.3%	20.1%	15%	80.4%	107%	98.5%	103%	109%	106%	100%	96.2%	26.4%	19.8%	22.5%
CN(C)Cc1ccc(-c2nc3cccc4c3n2CCNC4=O)cc1	91.1%	99.5%	115%	116%	124%	107%	109%	121%	129%	112%	99.4%	87.2%	108%	94.7%	103%	98.3%	102%	111%	106%	97.2%	103%	104%	98%	102%	90.8%	110%	115%	119%	110%	116%	126%	124%	118%
